In US20110217293A1, “Uses of morelloflavone” (priority 2008, published 2011):
“Also recorded” adds a separate entry of the source.

Tests used:
[1] = test system: vascular smooth muscle cells; assay: MTT cell death (viability) assay; assay type: cell-based, mouse; parameters: dose or concentration left out as unconfirmed; settings: 48 hrs
Experimental: Mouse vascular smooth muscle cells, isolated as described (13), were maintained in 231 media (Cascade Biologics, Portland, Oreg.) supplemented with SMGS (Cascade Biologics) in a humidified incubator at 37° C. with 5% CO2. Cells from passages 4-9 were used in all experiments. All experiments were performed in subconfluent, unsynchronized cells growing in SMGS except for the lamellipodium formation assay. Vascular smooth muscle cells were plated at 1×10^4 cells per well in 96-well culture plates and incubated overnight. The cells were treated with various concentrations of morelloflavone for 48 hrs. Then, the cells were exposed to MTT labeling reagent at 10 mg/mL for 4 hrs and solubilized in 0.01 N HCl containing 10% SDS overnight. Formed formazan was measured via spectrophotometry at 600 nm.

[2] = test system: focal adhesion kinase (FAK); assay: Western blot, phosphorylation of FAK; assay type: cell-based, mouse; settings: low concentrations (0.1 & 1 mM), 5 min
Experimental: For the evaluation of phosphorylated FAK and c-Src, Western blot analyses were performed as described (15). Briefly, vascular smooth muscle cells were seeded on 10-cm dishes, treated with various concentrations of morelloflavone for 5 min, and harvested into RIPA buffer with protease inhibitor cocktails. Cleared cell lysates ([…] of protein) were incubated with anti-FAK or anti-c-Src antibodies at 4° C. for 1 hr in a final volume of 1 mL RIPA buffer, and incubated for another 1 hr with protein A/G agarose beads (Santa Cruz; SCBT sc-2003). Immunoprecipitated proteins were eluted into SDS-loading 7 buffer and subjected to 12% SDS-PAGE and immunoblotting using anti-FAK (Santa Cruz; A-17; sc-557) and anti-c-Src (Santa Cruz; SRC-2; sc-18) antibodies for total FAK and c-Src, respectively, and anti-phosphotyrosine antibody (Santa Cruz; PY-20; sc-508) for phosphorylated FAK and c-Src. Densitometric analyses were performed using Adobe Photoshop (Adobe Systems Incorporated, San Jose, Calif.).

Ldlr−/−Apobec1−/− mice = assay: Analysis of atherosclerotic lesions (en-face and cross-sectional); assay type: in vivo, mouse; settings: 8 months
Experimental: As a model of in vivo athereosclerosis, mice that lack the low density lipoprotein (LDL) receptor and Apobec 1 genes (Ldlr^−/−Apobec1^−/−) were used. The Ldlr^−/−Apobec1^−/− mice were generated by crossbreeding Ldlr^−/− mice (Jackson Lab, Bar Harbor, Me.) and Apobec1^−/− mice (Dr. Lawrence Chan, Baylor College of Medicine). Genotyping was performed in standard PCR-based methods, using following primer sets: For Apobec1, 5′-TGAGTGAGTGGTGGTGGTAAAG-3′ (SEQ ID NO: 1) and 5′-CGAAATTCCTCCAGCAGTAAC-3′ (SEQ ID NO: 2) where […] and […] mice would have 475 by amplicon while Apobec1^−/− have none. For Ldlr, 5′-ACCCCAAGACGTGCTCCCAGGATGA-3′ (SEQ ID NO: 3), 5′-CGCAGTGCTCCTCATCTGACTTGT-3′ (SEQ ID NO: 4), 5′-AGGATCTCGTCGTGACCCATGGCGA-3′ (SEQ ID NO: 5), and 5′-GAGCGGCGATACCGTAAAGCACGAGG-3′ (SEQ ID NO: 6) where Ldlr^+/+ mice would yield 383 bp amplicon, while Ldlr^−/− 200 bp and […] amplicons, respectively.
Twenty four (24) 8 week old Ldlr^−/−Apobec1^−/− mice were randomly assigned to either control group (normal rodent chow, Lab Diet, Richmond, Ind., N=12) or morelloflavone group (normal rodent chow supplemented with 0.003% (w/w) morelloflavone, N=12). The 0.003% (w/w) morelloflavone corresponds to approximately 4 mg/kg morelloflavone for 30 gram animals that consume 4 grams of chow. Animals were housed individually in an air-conditioned room with 12-h light/dark cycle with access to food and water. Body weight of these mice was monitored monthly. After 8 months, animals were sacrificed for analyses of atherosclerosis. Just prior to the sacrifice, blood was sampled from the heart and collected into micro-centrifuge tubes containing EDTA. The entire aortae were excised. All animal experimentation protocols were performed according to the protocol approved by the Institutional Animal Care and Use Committee (IACUC) of the University of Texas Health Science Center at Houston, in accordance with the National Institutes of Health guidelines.
The aortae and hearts were excised en bloc. The extent and degree of atherosclerosis was quantified by both en-face analyses of atherosclerosis lesions and the intimal areas of the ascending aortae at the level of aortic valve leaflet. For en-face analysis of atherosclerotic areas, the distal portion of the ascending aortae, aortic arches, and descending aortae down to the liac bifurcations were pinned flat on a white wax surface, fixed with 10% (v/v) buffered formalin solution overnight, stained by freshly prepared and filtered Oil red O solution for 1 hr, rinsed twice with 78% methanol, mounted and dried on the glass slides, and scanned in the TIFF format using the ScanScope slide scanning system (Nikon, Melville, N.Y.). The planimetry of the entire surface areas and Oil red O-positive atherosclerotic lesion areas was performed on the scanned images using Sigma Scan Pro software (SPSS Science, Chicago, Ill.).
For the cross sectional analyses of atherosclerosis, the roots of the ascending aortae were embedded in OCT compound (Tissue-Tek®, Sakura-Fineteck U.S.A., Torrance, Calif.). […] In both methods of atherosclerosis quantification, the images of aortae were digitally captured and stored in the TIFF format, using the ScanScope slide scanning system (Nikon, Melville, N.Y.). The quantification of the atherosclerotic area was performed by Image J software (NIH, Bethesda, Md.) and expressed at lesion areas (μm^2).

O=C1c2c(O)cc(O)cc2O[C@H](c2ccc(O)cc2)[C@H]1c1c(O)cc(O)c2c(=O)cc(-c3ccc(O)c(O)c3)oc12 [morelloflavone, 5,7, 4′, 5″, 7″, 3″, 4″-heptahydroxy-[3,8″]-flavonylflavanone]
cytotoxicity / cell survival (MTT) [1]: no cytotoxicity; also recorded: does not affect; also recorded: not cytotoxic; also recorded: does not induce cytotoxicity
phosphorylation of FAK [2]: inhibited; also recorded: robustly decreased phosphorylation; also recorded: blocks
atherosclerotic surface area, en-face analysis (Ldlr−/−Apobec1−/− mice; 0.003% (w/w) diet (0.03%), male Ldlr−/−Apobec1−/− mice): 24.9±6.9 % of the total aortic surface area
atherosclerotic lesion area, cross-sectional analysis at aortic valve (Ldlr−/−Apobec1−/− mice; 0.003% diet): 5.65±1.05 ×10^3 μm^2
reduction of cross-sectional lesion area vs control (Ldlr−/−Apobec1−/− mice; 0.003% diet): 26%
reduction of en-face atherosclerotic area vs control (Ldlr−/−Apobec1−/− mice; 0.003% diet): 26%
total area affected by atherosclerosis compared with control mice (en face) (Ldlr−/−Apobec1−/− mice; 0.003% morelloflavone-containing diet): substantially lower
